Reference: ChEMBL document CHEMBL1141030, “Synthesis and biological evaluation of phloridzin analogs as human concentrative nucleoside transporter 3 (hCNT3) inhibitors” (Bioorg Med Chem Lett, 2009)

Experiments:
[1] = biological target: T1, Sodium/nucleoside cotransporter 1 (Homo sapiens, UniProt O00337); assay: Inhibition of human CNT1
T1 sequence (O00337 whole entry): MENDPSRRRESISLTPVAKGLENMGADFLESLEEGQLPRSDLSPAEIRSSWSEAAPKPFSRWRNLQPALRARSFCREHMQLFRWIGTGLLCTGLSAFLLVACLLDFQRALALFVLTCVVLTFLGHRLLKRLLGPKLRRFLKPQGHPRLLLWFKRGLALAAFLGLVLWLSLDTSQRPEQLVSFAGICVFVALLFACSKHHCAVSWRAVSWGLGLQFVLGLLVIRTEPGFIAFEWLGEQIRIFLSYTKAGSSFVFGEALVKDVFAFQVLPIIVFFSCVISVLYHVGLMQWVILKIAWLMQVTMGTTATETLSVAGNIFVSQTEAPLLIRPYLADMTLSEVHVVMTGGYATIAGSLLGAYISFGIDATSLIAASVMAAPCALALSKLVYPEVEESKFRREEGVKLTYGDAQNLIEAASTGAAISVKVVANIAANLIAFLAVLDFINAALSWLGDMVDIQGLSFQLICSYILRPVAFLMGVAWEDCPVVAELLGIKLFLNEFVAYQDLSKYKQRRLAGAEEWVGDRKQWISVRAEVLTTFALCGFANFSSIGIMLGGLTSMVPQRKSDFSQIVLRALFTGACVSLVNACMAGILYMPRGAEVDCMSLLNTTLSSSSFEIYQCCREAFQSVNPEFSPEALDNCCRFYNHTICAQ

[2] = biological target: T2, Sodium/nucleoside cotransporter 2 (Homo sapiens, UniProt O43868); assay: Inhibition of human CNT2
T2 sequence (O43868 whole entry): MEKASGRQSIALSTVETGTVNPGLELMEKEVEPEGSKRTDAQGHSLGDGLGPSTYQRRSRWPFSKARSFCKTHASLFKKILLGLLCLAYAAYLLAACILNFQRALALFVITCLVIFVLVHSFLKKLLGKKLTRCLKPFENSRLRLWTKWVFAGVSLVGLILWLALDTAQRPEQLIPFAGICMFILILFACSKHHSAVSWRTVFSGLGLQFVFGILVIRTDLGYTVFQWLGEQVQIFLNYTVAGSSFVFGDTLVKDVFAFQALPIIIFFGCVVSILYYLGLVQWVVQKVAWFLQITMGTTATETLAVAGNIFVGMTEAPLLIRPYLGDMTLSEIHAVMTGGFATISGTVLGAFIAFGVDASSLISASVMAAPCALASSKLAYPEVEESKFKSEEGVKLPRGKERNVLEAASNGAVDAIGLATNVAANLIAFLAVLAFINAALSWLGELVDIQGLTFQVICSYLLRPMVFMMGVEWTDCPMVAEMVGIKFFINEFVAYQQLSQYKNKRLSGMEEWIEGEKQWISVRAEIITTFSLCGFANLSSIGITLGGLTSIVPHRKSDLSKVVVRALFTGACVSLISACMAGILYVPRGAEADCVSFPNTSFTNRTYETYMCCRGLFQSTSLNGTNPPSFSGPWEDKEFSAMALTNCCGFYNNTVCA

[3] = biological target: T3, Equilibrative nucleoside transporter 1 (Homo sapiens, UniProt Q99808); assay: Binding affinity to human ENT1 assessed as [3H]uridine uptake by flow cytometry
T3 sequence (Q99808 whole entry): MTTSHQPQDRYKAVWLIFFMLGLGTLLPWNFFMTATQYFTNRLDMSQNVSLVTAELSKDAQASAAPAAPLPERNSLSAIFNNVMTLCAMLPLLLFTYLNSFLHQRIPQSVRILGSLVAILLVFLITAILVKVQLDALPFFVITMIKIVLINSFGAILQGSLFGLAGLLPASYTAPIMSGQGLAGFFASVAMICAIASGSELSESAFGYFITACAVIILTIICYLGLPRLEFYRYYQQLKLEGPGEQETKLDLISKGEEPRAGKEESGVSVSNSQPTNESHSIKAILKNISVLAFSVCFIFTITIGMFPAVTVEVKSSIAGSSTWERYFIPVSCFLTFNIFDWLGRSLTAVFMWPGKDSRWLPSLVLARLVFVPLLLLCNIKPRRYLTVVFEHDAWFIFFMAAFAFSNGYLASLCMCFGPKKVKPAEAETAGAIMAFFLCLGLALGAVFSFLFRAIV

[4] = biological target: T4, Solute carrier family 28 member 3 (Homo sapiens, UniProt Q9HAS3); assay: Binding affinity to human recombinant CNT3 expressed in pig PK15NTD cells assessed as [3H]uridine uptake by beta-scintillation counter; format: cell-based
T4 sequence (Q9HAS3 whole entry): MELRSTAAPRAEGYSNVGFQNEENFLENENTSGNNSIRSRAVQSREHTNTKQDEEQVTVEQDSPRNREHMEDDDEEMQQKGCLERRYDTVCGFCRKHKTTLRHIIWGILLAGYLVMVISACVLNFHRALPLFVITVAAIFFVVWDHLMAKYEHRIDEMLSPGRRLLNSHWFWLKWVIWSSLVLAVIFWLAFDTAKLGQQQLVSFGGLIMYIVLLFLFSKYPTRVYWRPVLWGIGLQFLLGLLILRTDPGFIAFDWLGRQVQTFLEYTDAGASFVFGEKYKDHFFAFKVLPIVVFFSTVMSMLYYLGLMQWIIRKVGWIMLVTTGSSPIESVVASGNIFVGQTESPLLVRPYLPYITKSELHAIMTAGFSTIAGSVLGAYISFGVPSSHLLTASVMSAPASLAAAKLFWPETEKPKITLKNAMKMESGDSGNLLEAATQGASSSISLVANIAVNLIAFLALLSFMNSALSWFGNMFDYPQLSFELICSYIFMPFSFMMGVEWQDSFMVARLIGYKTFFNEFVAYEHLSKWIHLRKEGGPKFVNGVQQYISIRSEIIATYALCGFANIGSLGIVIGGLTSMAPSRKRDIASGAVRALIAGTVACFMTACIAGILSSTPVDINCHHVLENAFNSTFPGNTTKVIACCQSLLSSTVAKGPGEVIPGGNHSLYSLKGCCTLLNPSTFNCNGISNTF

Compound | Ki [4] [µM] | also measured
O=C(CCc1ccc(O)cc1)c1c(O)cc(O)cc1O[C@@H]1O[C@H](CO)[C@@H](O)[C@H](O)[C@H]1O [PHLORIZIN] | 16 | IC50 [1]: 250 µM; IC50 [2]: 100 µM; Ki [3]: > 1000 µM
CC(=O)c1ccc(O)cc1O | > 100 | 
CC(=O)c1cc(O)cc(O)c1 | > 100 | 
O=C(CCc1ccc(O)cc1)c1c(O)cc(O)cc1O [PHLORETIN] | 32.3 | 
CC(=O)c1c(O)cc(O)cc1O[C@@H]1O[C@H](CO)[C@@H](O)[C@H]1O | 12.4 | 
CC(=O)c1cc(O)cc(O[C@@H]2O[C@H](CO)[C@@H](O)[C@H]2O)c1 | > 100 | 
CC(=O)c1c(O)cccc1O[C@@H]1O[C@H](CO)[C@@H](O)[C@H]1O | 42.1 | 
CC(=O)c1ccc(O[C@H]2O[C@H](CO)[C@@H](O)[C@H](O)[C@H]2O)cc1O | > 100 | 
CC(=O)c1c(O)cc(O)cc1O[C@H]1O[C@H](CO)[C@@H](O)[C@H](O)[C@H]1O | 30.8 | 
O=C(CCc1ccc(O)cc1)c1c(O)cc(O)cc1O[C@@H]1O[C@H](CO)[C@@H](O)[C@H]1O | 2.88 | Ki [3]: > 1000 µM
O=C(CCc1ccc(O)cc1)c1c(O)cc(O[C@@H]2O[C@H](CO)[C@@H](O)[C@H](O)[C@H]2O)cc1O | > 100 | 
Oc1ccc(CCCc2c(O)cc(O)cc2O)cc1 | 30 | 
O=[N+]([O-])c1ccc(CSc2ncnc3c2ncn3[C@@H]2O[C@H](CO)[C@@H](O)[C@H]2O)cc1 [NITROBENZYLMERCAPTOPURINE RIBONUCLEOSIDE] | 88 | 
CC(=O)c1c(O)cccc1O[C@H]1O[C@H](CO)[C@@H](O)[C@H](O)[C@H]1O | 53.9 | 
CC(=O)c1c(O)cc(O)cc1O [2,4,6-TRIHYDROXYACETOPHENONE] | > 100 | 
CC(=O)c1c(O)cccc1O | > 100 | 
O=C(CCc1ccccc1)c1ccccc1O[C@@H]1O[C@H](CO)[C@@H](O)[C@H]1O | > 100 | 
CC(=O)c1cc(O)cc(O[C@H]2O[C@H](CO)[C@@H](O)[C@H](O)[C@H]2O)c1 | > 100 | 
OC[C@H]1O[C@@H](Oc2cc(O)cc(O)c2CCCc2ccc(O)cc2)[C@H](O)[C@@H](O)[C@@H]1O | 12.3 | 
